PubChem BioAssay (NCI)
Where “and” joins values, the source holds several entries; their conditions need not be identical. Identical values can stand only once.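 Cells were grown in 96-well plates and exposed to each compound for 48 hours at five concentrations; endpoints were interpolated linearly between bracketing concentrations, or set to the highest concentration if not reached. Here, GI50 denotes the concentration required for 50% inhibition of growth. TGI denotes the concentration required for complete inhibition of growth.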

What was measured:
Experiment in all cases: NCI anticancer screen, dose series, 48 h
SK-MEL-5 melanoma = test system: SK-MEL-5 melanoma
MALME-3M melanoma = test system: MALME-3M melanoma
OVCAR-8 ovarian = test system: OVCAR-8 ovarian
SW-620 colon = test system: SW-620 colon
EKVX NSCLC = test system: EKVX NSCLC
LOX IMVI melanoma = test system: LOX IMVI melanoma
UACC-257 melanoma = test system: UACC-257 melanoma
M19-MEL melanoma = test system: M19-MEL melanoma
HOP-92 NSCLC = test system: HOP-92 NSCLC
NCI-H23 lung = test system: NCI-H23 lung
NCI-H226 lung = test system: NCI-H226 lung
SF-268 CNS = test system: SF-268 CNS
OVCAR-3 ovarian = test system: OVCAR-3 ovarian
SF-539 CNS = test system: SF-539 CNS
SK-OV-3 ovarian = test system: SK-OV-3 ovarian
A498 renal = test system: A498 renal
XF 498 CNS = test system: XF 498 CNS
SK-MEL-2 melanoma = test system: SK-MEL-2 melanoma
A549 NSCLC = test system: A549 NSCLC
SNB-19 CNS = test system: SNB-19 CNS
U251 CNS = test system: U251 CNS
DMS 273 small cell lung = test system: DMS 273 small cell lung
SNB-75 CNS = test system: SNB-75 CNS
DMS 114 small cell lung = test system: DMS 114 small cell lung
SN12C renal = test system: SN12C renal
OVCAR-5 ovarian = test system: OVCAR-5 ovarian
NCI-H460 lung = test system: NCI-H460 lung
DLD-1 colon = test system: DLD-1 colon
KM20L2 colon = test system: KM20L2 colon
HOP-18 NSCLC = test system: HOP-18 NSCLC
OVCAR-4 ovarian = test system: OVCAR-4 ovarian
HOP-62 NSCLC = test system: HOP-62 NSCLC
COLO 205 colon = test system: COLO 205 colon
NCI-H522 lung = test system: NCI-H522 lung
RXF 393 renal = test system: RXF 393 renal
HCT-116 colon = test system: HCT-116 colon
KM12 colon = test system: KM12 colon
ACHN renal = test system: ACHN renal
786-0 renal = test system: 786-0 renal
UACC-62 melanoma = test system: UACC-62 melanoma
SK-MEL-28 melanoma = test system: SK-MEL-28 melanoma
IGROV1 ovarian = test system: IGROV1 ovarian
LXFL 529 NSCLC = test system: LXFL 529 NSCLC
SNB-78 CNS = test system: SNB-78 CNS
HCT-15 colon = test system: HCT-15 colon
CCRF-CEM leukemia = test system: CCRF-CEM leukemia
SF-295 CNS = test system: SF-295 CNS
UO-31 renal = test system: UO-31 renal
HCC-2998 colon = test system: HCC-2998 colon
TK-10 renal = test system: TK-10 renal
M14 melanoma = test system: M14 melanoma
HL-60(TB) leukemia = test system: HL-60(TB) leukemia
HT29 colon = test system: HT29 colon
RPMI-8226 leukemia = test system: RPMI-8226 leukemia
MOLT-4 leukemia = test system: MOLT-4 leukemia
CAKI-1 renal = test system: CAKI-1 renal
K-562 leukemia = test system: K-562 leukemia
SR leukemia = test system: SR leukemia

In the case of CCCCCCCCCCCCCB(O)O, the GI50 (SK-MEL-5 melanoma) is reported as > 100 µM and 45.4 µM, the TGI (SK-MEL-5 melanoma) is reported as > 100 µM and the TGI (MALME-3M melanoma) is reported as > 100 µM. For the same compound, the TGI (OVCAR-8 ovarian) was > 100 µM, the TGI (SW-620 colon) was > 100 µM and the GI50 (EKVX NSCLC) was > 100 µM and 45.5 µM. The TGI (EKVX NSCLC) was > 100 µM, the TGI (LOX IMVI melanoma) was > 100 µM and the TGI (UACC-257 melanoma) was > 100 µM. The TGI (M19-MEL melanoma) was > 100 µM, the GI50 (HOP-92 NSCLC) was > 100 µM and 25.1 µM and the TGI (HOP-92 NSCLC) was > 100 µM and 82.9 µM. For the same compound, the TGI (NCI-H23 lung) was > 100 µM, the TGI (NCI-H226 lung) was > 100 µM and the TGI (SF-268 CNS) was > 100 µM. The TGI (OVCAR-3 ovarian) was > 100 µM, the TGI (SF-539 CNS) was > 100 µM and the TGI (SK-OV-3 ovarian) was > 100 µM. The TGI (A498 renal) was > 100 µM, the TGI (XF 498 CNS) was > 100 µM and the TGI (SK-MEL-2 melanoma) was > 100 µM. For the same compound, the GI50 (A549 NSCLC) was > 100 µM and 48.5 µM, the TGI (A549 NSCLC) was > 100 µM and the TGI (SNB-19 CNS) was > 100 µM. The TGI (U251 CNS) was > 100 µM, the TGI (DMS 273 small cell lung) was > 100 µM and the TGI (SNB-75 CNS) was > 100 µM and 37.6 µM. For the same compound, the TGI (DMS 114 small cell lung) was > 100 µM, the TGI (SN12C renal) was > 100 µM and the TGI (OVCAR-5 ovarian) was > 100 µM. The TGI (NCI-H460 lung) was > 100 µM, the TGI (DLD-1 colon) was > 100 µM and the TGI (KM20L2 colon) was > 100 µM. For the same compound, the GI50 (HOP-18 NSCLC) was > 100 µM and 25.9 µM, the TGI (HOP-18 NSCLC) was > 100 µM and the GI50 (OVCAR-4 ovarian) was > 100 µM and 49.3 µM. For the same compound, the TGI (OVCAR-4 ovarian) was > 100 µM, the TGI (HOP-62 NSCLC) was > 100 µM and the TGI (COLO 205 colon) was > 100 µM. The TGI (NCI-H522 lung) was > 100 µM, the GI50 (RXF 393 renal) was > 100 µM and 29.5 µM and the TGI (RXF 393 renal) was > 100 µM and 73.7 µM. The GI50 (HCT-116 colon) was > 100 µM and 47.8 µM, the TGI (HCT-116 colon) was > 100 µM and the GI50 (KM12 colon) was > 100 µM and 35.8 µM. For the same compound, the TGI (KM12 colon) was > 100 µM, the GI50 (ACHN renal) was > 100 µM and 45.4 µM and the TGI (ACHN renal) was > 100 µM. For the same compound, the TGI (786-0 renal) was > 100 µM, the TGI (UACC-62 melanoma) was > 100 µM and the TGI (SK-MEL-28 melanoma) was > 100 µM. For the same compound, the TGI (IGROV1 ovarian) was > 100 µM, the TGI (LXFL 529 NSCLC) was > 100 µM and the TGI (SNB-78 CNS) was > 100 µM. The GI50 (HCT-15 colon) was > 100 µM and 49.3 µM, the TGI (HCT-15 colon) was > 100 µM and the TGI (CCRF-CEM leukemia) was > 100 µM. The TGI (SF-295 CNS) was > 100 µM, the GI50 (UO-31 renal) was > 100 µM and 27.5 µM and the TGI (UO-31 renal) was > 100 µM. The GI50 (HCC-2998 colon) was > 100 µM and 32 µM, the TGI (HCC-2998 colon) was > 100 µM and 84.7 µM and the TGI (TK-10 renal) was > 100 µM. For the same compound, the TGI (M14 melanoma) was > 100 µM, the TGI (HL-60(TB) leukemia) was > 100 µM and 42.5 µM and the GI50 (HT29 colon) was > 100 µM and 29.9 µM. For the same compound, the TGI (HT29 colon) was > 100 µM.
With C[Si](C)(C)C(Sc1ccccc1)(Sc1ccccc1)Sc1ccccc1 the TGI (SK-MEL-5 melanoma) was > 100 µM, the TGI (OVCAR-8 ovarian) was > 100 µM and the TGI (SW-620 colon) was > 100 µM. For the same compound, the TGI (EKVX NSCLC) was > 100 µM, the TGI (RPMI-8226 leukemia) was > 100 µM and the TGI (LOX IMVI melanoma) was > 100 µM. For the same compound, the TGI (UACC-257 melanoma) was > 100 µM, the TGI (M19-MEL melanoma) was > 100 µM and the TGI (HOP-92 NSCLC) was 94.1 µM. The TGI (NCI-H23 lung) was > 100 µM, the TGI (SF-268 CNS) was > 100 µM and the TGI (SF-539 CNS) was > 100 µM. The TGI (SK-OV-3 ovarian) was > 100 µM, the TGI (A498 renal) was > 100 µM and the TGI (XF 498 CNS) was > 100 µM. For the same compound, the TGI (SK-MEL-2 melanoma) was > 100 µM, the TGI (A549 NSCLC) was > 100 µM and the TGI (SNB-19 CNS) was > 100 µM. The TGI (MOLT-4 leukemia) was > 100 µM, the TGI (CAKI-1 renal) was > 100 µM and the TGI (U251 CNS) was > 100 µM. For the same compound, the TGI (DMS 273 small cell lung) was > 100 µM, the TGI (SNB-75 CNS) was > 100 µM and the TGI (DMS 114 small cell lung) was > 100 µM. The TGI (SN12C renal) was > 100 µM, the TGI (K-562 leukemia) was > 100 µM and the TGI (NCI-H460 lung) was > 100 µM. The TGI (DLD-1 colon) was > 100 µM, the TGI (KM20L2 colon) was > 100 µM and the TGI (OVCAR-4 ovarian) was > 100 µM. For the same compound, the TGI (COLO 205 colon) was > 100 µM, the TGI (RXF 393 renal) was > 100 µM and the TGI (HCT-116 colon) was > 100 µM. For the same compound, the TGI (KM12 colon) was > 100 µM, the TGI (ACHN renal) was > 100 µM and the TGI (786-0 renal) was > 100 µM. The TGI (SR leukemia) was > 100 µM, the TGI (UACC-62 melanoma) was > 100 µM and the TGI (SK-MEL-28 melanoma) was > 100 µM. The TGI (LXFL 529 NSCLC) was > 100 µM, the TGI (SNB-78 CNS) was > 100 µM and the TGI (HCT-15 colon) was > 100 µM. The TGI (CCRF-CEM leukemia) was > 100 µM, the TGI (SF-295 CNS) was > 100 µM and the TGI (UO-31 renal) was > 100 µM. For the same compound, the TGI (HCC-2998 colon) was > 100 µM, the TGI (TK-10 renal) was > 100 µM and the TGI (HL-60(TB) leukemia) was > 100 µM.
For CCCCN(CCCC)CCCn1cnc2ncccc2c1=O, the TGI (SK-MEL-5 melanoma) was > 100 µM, the TGI (MALME-3M melanoma) was > 100 µM and the TGI (OVCAR-8 ovarian) was > 100 µM. The TGI (SW-620 colon) was > 100 µM, the TGI (EKVX NSCLC) was > 100 µM and the TGI (LOX IMVI melanoma) was > 100 µM. The TGI (M19-MEL melanoma) was > 100 µM, the TGI (HOP-92 NSCLC) was > 100 µM and the TGI (NCI-H23 lung) was > 100 µM. For the same compound, the TGI (NCI-H226 lung) was > 100 µM, the TGI (SF-268 CNS) was > 100 µM and the TGI (OVCAR-3 ovarian) was > 100 µM. The TGI (SF-539 CNS) was > 100 µM, the TGI (SK-OV-3 ovarian) was > 100 µM and the TGI (XF 498 CNS) was > 100 µM. The TGI (SK-MEL-2 melanoma) was > 100 µM, the TGI (A549 NSCLC) was > 100 µM and the TGI (SNB-19 CNS) was > 100 µM. The TGI (MOLT-4 leukemia) was > 100 µM, the TGI (CAKI-1 renal) was > 100 µM and the TGI (U251 CNS) was > 100 µM. For the same compound, the TGI (DMS 273 small cell lung) was > 100 µM, the TGI (SNB-75 CNS) was > 100 µM and the TGI (DMS 114 small cell lung) was > 100 µM. For the same compound, the TGI (SN12C renal) was > 100 µM, the TGI (OVCAR-5 ovarian) was > 100 µM and the TGI (K-562 leukemia) was > 100 µM. For the same compound, the TGI (NCI-H460 lung) was > 100 µM, the TGI (DLD-1 colon) was > 100 µM and the TGI (KM20L2 colon) was > 100 µM. The TGI (OVCAR-4 ovarian) was > 100 µM, the TGI (HOP-62 NSCLC) was > 100 µM and the TGI (COLO 205 colon) was > 100 µM. For the same compound, the TGI (NCI-H522 lung) was > 100 µM, the TGI (RXF 393 renal) was > 100 µM and the TGI (HCT-116 colon) was > 100 µM. For the same compound, the TGI (KM12 colon) was > 100 µM, the TGI (ACHN renal) was > 100 µM and the TGI (786-0 renal) was > 100 µM. The TGI (SR leukemia) was > 100 µM, the TGI (UACC-62 melanoma) was > 100 µM and the TGI (SK-MEL-28 melanoma) was > 100 µM. For the same compound, the TGI (IGROV1 ovarian) was > 100 µM, the TGI (LXFL 529 NSCLC) was > 100 µM and the TGI (SNB-78 CNS) was > 100 µM. For the same compound, the TGI (CCRF-CEM leukemia) was > 100 µM, the TGI (SF-295 CNS) was > 100 µM and the TGI (UO-31 renal) was > 100 µM. The TGI (HCC-2998 colon) was > 100 µM, the TGI (TK-10 renal) was > 100 µM and the TGI (M14 melanoma) was > 100 µM. For the same compound, the TGI (HT29 colon) was > 100 µM.
